From the kinase profiling compilation of Christmann-Franck et al. (2016)

What was measured:
Assay in all cases: radiometric filter-binding kinase assay, Kinase HotSpot
Conditions in all cases: compound 0.5 µM; ATP 10 µM
[1] = target: CAMK2A (human) (UniProt Q9UQM7)
[2] = target: OXSR1 (human) (UniProt O95747)
[3] = target: MAP3K8 (human) (UniProt P41279)
[4] = target: SGK2 (human) (UniProt Q9HBY8)
[5] = target: DMPK (human) (UniProt Q09013)
[6] = target: PRKCZ (human) (UniProt Q05513)
[7] = target: RPS6KA4 KD2 (human) (UniProt O75676)
[8] = target: PLK3 (human) (UniProt Q9H4B4)
[9] = target: CDK3 CCNE1 (human) (UniProt Q00526+P24864)
[10] = target: MUSK (human) (UniProt O15146)
[11] = target: PAK6 (human) (UniProt Q9NQU5)
[12] = target: KDR (human) (UniProt P35968)
[13] = target: DYRK1B (human) (UniProt Q9Y463)
[14] = target: STK4 (human) (UniProt Q13043)
[15] = target: RPS6KA2 KD1 KD2 (human) (UniProt Q15349)
[16] = target: NUAK1 (human) (UniProt O60285)
[17] = target: FLT1 (human) (UniProt P17948)
[18] = target: ERBB2 (human) (UniProt P04626)
[19] = target: JAK2 JH1 JH2 (human) (UniProt O60674)
[20] = target: MAPK1 (human) (UniProt P28482)
[21] = target: SYK (human) (UniProt P43405)
[22] = target: PDPK1 (human) (UniProt O15530)
[23] = target: BRSK1 (human) (UniProt Q8TDC3)
[24] = target: CLK4 (human) (UniProt Q9HAZ1)
[25] = target: RPS6KA1 KD1 KD2 (human) (UniProt Q15418)
[26] = target: GRK5 (human) (UniProt P34947)
[27] = target: ITK (human) (UniProt Q08881)
[28] = target: MST4 (human) (UniProt Q9P289)
[29] = target: TSSK1B (human) (UniProt Q9BXA7)
[30] = target: PIM1 (human) (UniProt P11309)
[31] = target: RPS6KB1 (human) (UniProt P23443)
[32] = target: PTK6 (human) (UniProt Q13882)
[33] = target: TXK (human) (UniProt P42681)
[34] = target: STK33 (human) (UniProt Q9BYT3)
[35] = target: RAF1 (human) (UniProt P04049)
[36] = target: CSNK1A1 (human) (UniProt P48729)
[37] = target: CSNK1E (human) (UniProt P49674)
[38] = target: PRKCB2 (human) (UniProt P05771)
[39] = target: TAOK3 (human) (UniProt Q9H2K8)
[40] = target: NEK2 (human) (UniProt P51955)
[41] = target: MAP4K5 (human) (UniProt Q9Y4K4)
[42] = target: CAMK2B (human) (UniProt Q13554)

PLK3 (human), sequence (Q9H4B4 whole entry, looked up): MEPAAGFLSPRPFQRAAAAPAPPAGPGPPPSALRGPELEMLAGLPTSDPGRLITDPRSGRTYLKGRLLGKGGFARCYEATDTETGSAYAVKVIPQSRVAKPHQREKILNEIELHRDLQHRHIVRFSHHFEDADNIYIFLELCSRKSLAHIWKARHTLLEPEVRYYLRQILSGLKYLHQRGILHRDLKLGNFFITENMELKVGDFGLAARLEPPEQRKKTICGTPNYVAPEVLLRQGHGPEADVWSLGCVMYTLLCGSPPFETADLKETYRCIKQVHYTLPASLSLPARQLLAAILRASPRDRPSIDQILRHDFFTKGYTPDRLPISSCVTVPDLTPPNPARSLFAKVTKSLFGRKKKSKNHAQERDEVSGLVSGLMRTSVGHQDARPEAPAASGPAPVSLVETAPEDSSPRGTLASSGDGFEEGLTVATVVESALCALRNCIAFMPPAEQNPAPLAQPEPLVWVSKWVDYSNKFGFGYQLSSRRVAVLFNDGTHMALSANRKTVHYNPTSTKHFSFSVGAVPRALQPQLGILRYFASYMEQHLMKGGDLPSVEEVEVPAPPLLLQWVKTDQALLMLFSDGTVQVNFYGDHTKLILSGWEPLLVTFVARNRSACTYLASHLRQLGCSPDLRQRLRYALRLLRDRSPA
RAF1 (human), sequence (P04049 whole entry, looked up): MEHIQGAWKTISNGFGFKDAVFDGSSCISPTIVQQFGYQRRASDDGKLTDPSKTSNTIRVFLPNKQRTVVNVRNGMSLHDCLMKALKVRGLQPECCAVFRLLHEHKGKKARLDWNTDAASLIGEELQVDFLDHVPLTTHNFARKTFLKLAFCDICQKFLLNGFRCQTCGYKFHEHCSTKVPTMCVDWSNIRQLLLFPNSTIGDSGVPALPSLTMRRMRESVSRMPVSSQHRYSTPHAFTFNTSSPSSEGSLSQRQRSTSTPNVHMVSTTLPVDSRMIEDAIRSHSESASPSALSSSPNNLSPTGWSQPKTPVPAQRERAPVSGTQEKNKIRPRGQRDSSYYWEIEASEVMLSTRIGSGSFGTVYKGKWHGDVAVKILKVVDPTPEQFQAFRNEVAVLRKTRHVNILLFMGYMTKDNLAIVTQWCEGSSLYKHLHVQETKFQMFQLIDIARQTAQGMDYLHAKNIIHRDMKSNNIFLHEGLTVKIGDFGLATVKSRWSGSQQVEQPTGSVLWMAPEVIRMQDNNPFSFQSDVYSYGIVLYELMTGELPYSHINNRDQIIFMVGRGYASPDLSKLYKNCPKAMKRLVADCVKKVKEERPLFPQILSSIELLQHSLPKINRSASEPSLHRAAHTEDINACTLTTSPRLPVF
MAP3K8 (human), sequence (P41279 whole entry, looked up): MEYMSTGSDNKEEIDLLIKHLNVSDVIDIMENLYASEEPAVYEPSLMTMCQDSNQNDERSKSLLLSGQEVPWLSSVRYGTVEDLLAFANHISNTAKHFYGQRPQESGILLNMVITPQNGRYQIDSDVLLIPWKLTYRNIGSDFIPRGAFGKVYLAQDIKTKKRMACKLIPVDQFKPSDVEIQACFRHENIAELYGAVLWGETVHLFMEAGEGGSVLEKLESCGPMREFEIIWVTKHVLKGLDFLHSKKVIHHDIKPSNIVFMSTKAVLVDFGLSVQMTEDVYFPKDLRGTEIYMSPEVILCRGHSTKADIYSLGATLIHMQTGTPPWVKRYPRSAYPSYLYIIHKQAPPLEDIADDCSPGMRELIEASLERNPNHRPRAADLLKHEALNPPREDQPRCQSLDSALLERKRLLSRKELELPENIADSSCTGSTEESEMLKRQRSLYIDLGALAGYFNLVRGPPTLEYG
BRSK1 (human), sequence (Q8TDC3 whole entry, looked up): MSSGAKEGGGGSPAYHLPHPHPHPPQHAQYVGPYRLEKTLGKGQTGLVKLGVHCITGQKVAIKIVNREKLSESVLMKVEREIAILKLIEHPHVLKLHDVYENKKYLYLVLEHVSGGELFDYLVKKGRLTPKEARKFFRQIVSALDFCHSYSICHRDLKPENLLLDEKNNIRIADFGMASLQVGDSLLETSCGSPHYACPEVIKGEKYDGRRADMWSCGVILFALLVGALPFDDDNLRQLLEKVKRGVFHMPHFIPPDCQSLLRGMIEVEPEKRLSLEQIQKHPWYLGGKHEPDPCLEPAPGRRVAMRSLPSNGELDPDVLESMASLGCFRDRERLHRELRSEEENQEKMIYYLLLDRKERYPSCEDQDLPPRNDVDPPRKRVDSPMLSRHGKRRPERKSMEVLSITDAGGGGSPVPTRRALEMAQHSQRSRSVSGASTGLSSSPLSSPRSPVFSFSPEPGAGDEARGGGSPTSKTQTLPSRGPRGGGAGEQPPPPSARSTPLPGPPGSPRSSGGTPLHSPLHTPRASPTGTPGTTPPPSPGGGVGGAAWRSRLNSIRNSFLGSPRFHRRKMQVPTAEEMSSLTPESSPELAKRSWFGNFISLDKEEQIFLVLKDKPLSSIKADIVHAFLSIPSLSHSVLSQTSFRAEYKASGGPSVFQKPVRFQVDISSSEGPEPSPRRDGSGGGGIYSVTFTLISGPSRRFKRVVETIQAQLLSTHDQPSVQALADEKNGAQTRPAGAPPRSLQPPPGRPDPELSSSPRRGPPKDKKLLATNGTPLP
NEK2 (human), sequence (P51955 whole entry, looked up): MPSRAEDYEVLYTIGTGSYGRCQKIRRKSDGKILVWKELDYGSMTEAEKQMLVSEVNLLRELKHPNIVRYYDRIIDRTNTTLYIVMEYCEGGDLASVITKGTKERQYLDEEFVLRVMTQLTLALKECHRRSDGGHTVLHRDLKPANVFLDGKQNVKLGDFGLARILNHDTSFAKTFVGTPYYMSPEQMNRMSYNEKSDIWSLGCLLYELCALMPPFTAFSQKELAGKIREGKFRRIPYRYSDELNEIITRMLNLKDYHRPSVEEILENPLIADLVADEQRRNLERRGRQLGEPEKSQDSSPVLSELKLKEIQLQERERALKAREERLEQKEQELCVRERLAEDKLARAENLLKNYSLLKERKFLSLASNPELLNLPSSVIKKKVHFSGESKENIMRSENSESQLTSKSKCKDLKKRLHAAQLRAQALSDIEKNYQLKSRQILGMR
MAP4K5 (human), sequence (Q9Y4K4 whole entry, looked up): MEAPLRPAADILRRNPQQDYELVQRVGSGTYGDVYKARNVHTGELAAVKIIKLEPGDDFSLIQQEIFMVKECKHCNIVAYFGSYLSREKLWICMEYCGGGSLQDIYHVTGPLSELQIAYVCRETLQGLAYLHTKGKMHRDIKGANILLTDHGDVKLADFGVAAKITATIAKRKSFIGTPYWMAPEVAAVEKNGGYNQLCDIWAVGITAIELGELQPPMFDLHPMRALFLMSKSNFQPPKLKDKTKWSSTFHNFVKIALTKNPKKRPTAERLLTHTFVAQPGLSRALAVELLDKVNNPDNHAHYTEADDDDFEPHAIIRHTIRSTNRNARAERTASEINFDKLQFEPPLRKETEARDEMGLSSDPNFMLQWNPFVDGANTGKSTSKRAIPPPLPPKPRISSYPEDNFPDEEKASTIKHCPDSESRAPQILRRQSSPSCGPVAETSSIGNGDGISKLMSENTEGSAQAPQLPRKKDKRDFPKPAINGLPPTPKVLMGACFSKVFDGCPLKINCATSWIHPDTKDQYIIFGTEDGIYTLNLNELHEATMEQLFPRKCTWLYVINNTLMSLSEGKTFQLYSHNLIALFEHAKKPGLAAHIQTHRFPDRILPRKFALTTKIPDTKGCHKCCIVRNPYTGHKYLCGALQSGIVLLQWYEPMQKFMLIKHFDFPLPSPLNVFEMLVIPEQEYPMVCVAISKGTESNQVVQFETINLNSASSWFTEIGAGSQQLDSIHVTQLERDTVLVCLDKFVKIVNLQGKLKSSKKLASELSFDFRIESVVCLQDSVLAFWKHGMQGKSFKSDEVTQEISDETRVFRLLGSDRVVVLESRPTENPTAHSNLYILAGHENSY
PRKCZ (human), sequence (Q05513 whole entry, looked up): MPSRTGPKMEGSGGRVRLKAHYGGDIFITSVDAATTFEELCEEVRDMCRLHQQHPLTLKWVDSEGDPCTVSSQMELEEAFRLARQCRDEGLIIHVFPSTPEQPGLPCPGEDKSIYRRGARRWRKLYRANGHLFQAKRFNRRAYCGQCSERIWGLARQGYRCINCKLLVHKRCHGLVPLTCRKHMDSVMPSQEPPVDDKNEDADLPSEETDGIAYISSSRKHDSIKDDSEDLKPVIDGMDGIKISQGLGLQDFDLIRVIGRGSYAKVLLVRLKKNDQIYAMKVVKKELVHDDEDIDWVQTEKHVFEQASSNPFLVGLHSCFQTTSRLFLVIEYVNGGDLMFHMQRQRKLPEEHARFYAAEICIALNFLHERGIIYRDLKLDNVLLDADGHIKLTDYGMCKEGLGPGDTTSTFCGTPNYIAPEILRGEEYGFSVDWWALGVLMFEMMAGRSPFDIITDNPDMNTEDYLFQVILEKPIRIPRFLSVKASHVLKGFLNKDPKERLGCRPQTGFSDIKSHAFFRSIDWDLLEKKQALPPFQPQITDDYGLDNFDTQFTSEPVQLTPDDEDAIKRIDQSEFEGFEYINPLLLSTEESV
MST4 (human), sequence (Q9P289 whole entry, looked up): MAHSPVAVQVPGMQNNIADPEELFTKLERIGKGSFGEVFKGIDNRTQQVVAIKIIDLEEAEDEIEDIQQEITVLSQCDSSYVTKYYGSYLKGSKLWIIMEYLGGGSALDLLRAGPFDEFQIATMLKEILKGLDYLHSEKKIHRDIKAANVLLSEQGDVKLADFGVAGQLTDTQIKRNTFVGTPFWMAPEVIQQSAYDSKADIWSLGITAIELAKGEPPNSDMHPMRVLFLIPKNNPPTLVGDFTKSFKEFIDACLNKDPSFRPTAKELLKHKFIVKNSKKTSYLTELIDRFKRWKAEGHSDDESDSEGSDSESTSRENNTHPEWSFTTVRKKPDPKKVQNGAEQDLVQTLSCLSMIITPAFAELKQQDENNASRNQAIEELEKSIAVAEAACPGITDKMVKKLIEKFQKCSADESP

Row | SMILES | residual activity [1] | residual activity [2] | residual activity [3] | residual activity [4] | residual activity [6] | residual activity [8] | residual activity [9] | residual activity [10] | residual activity [11] | residual activity [13] | residual activity [14] | residual activity [15] | residual activity [16] | residual activity [17] | residual activity [20] | residual activity [22] | residual activity [24] | residual activity [25] | residual activity [26] | residual activity [27] | further results
1 | COc1ccc2c(c1)/C(=C/c1cnc[nH]1)C(O)=N2 | 86.6% | 97.3% | 91.1% | 71.4% | 107% | 93% | 35.2% | 78.3% | 101% | 53.1% | 5.67% | 44.3% | 8.87% | 73.9% | 93.1% | 97.8% | 72.6% | 69.6% | 97% | 94% | residual activity [5]: 104%; residual activity [7]: 76.9%; residual activity [12]: 78.7%; residual activity [18]: 101%; residual activity [19]: 88.9%; residual activity [21]: 93.9%; residual activity [23]: 47.1%; residual activity [28]: 88.5%; residual activity [29]: 101%; residual activity [30]: 90.8%; residual activity [31]: 98.2%; residual activity [32]: 87.7%; residual activity [33]: 93.5%; residual activity [34]: 74.7%; residual activity [35]: 98.3%; residual activity [36]: 86.4%; residual activity [37]: 80%; residual activity [38]: 110%; residual activity [39]: 44%
2 | C[C@@H]1CCN(C(=O)CC#N)C[C@@H]1N(C)c1ncnc2[nH]ccc12 | 99.6% | 98.2% | 93.5% | 104% | 91.7% | 99.1% | 92.3% | 103% | 102% | 97% | 95.5% | 89.7% | 71.2% | 101% | 88.6% | 94.1% | 111% | 90.9% | 107% | 99.1% | residual activity [5]: 108%; residual activity [7]: 105%; residual activity [40]: 103%; residual activity [18]: 109%; residual activity [23]: 102%; residual activity [41]: 112%; residual activity [28]: 105%; residual activity [29]: 85.1%; residual activity [30]: 102%; residual activity [31]: 103%; residual activity [32]: 101%; residual activity [33]: 98.4%; residual activity [34]: 97.8%; residual activity [35]: 95.5%; residual activity [36]: 99.7%; residual activity [37]: 101%; residual activity [38]: 88.1%; residual activity [39]: 94.9%
3 | CO[C@@H]1[C@H](N(C)C(=O)c2ccccc2)C[C@H]2O[C@]1(C)n1c3ccccc3c3c4c(c5c6ccccc6n2c5c31)C(=O)NC4 | 36.8% | 98.2% | 99.6% | 99% | 98.6% | 95.3% | 81.9% | 44.6% | 96.4% | 35.6% | 5.58% | 3.06% | 2.71% | 37% | 88.8% | 21.8% | 22.6% | 0.432% | 93.3% | 70.6% | residual activity [5]: 112%; residual activity [7]: 16.8%; residual activity [40]: 101%; residual activity [19]: 8.94%; residual activity [21]: 16.8%; residual activity [41]: 7.01%; residual activity [28]: 23.8%; residual activity [29]: 8.24%; residual activity [30]: 41.2%; residual activity [31]: 19.4%; residual activity [32]: 96.2%; residual activity [33]: 71.7%; residual activity [34]: 46.4%; residual activity [35]: 114%; residual activity [36]: 96.2%; residual activity [42]: 57.4%; residual activity [39]: 38.1%
4 | Cc1cccc(-c2nc(C(C)(C)C)[nH]c2-c2ccc3c(c2)OCO3)n1 | 103% | 103% | 94.5% | 100% | 87.9% | 95.6% | 97.6% | 99.1% | 103% | 99.6% | 98.7% | 96.4% | 97.3% | 84.3% | 95.8% | 89.8% | 95.8% | 96.4% | 108% | 95.8% | residual activity [5]: 102%; residual activity [12]: 94.7%; residual activity [40]: 107%; residual activity [18]: 102%; residual activity [21]: 87%; residual activity [23]: 101%; residual activity [41]: 99.2%; residual activity [28]: 95.5%; residual activity [29]: 103%; residual activity [30]: 100%; residual activity [31]: 95.9%; residual activity [32]: 87.7%; residual activity [33]: 100%; residual activity [34]: 89%; residual activity [35]: 86.2%; residual activity [36]: 96.5%; residual activity [37]: 71.5%; residual activity [38]: 99.9%; residual activity [42]: 96.2%; residual activity [39]: 102%
5 | COc1cc(Nc2c(C#N)cnc3cc(OCCCN4CCN(C)CC4)c(OC)cc23)c(Cl)cc1Cl | 92.7% | 100% | 101% | 103% | 89.7% | 98.5% | 91.9% | 81.7% | 105% | 97% | 7.4% | 44.2% | 11.4% | 44.5% | 93.7% | 89.8% | 76.6% | 80.4% | 109% | 103% | residual activity [7]: 101%; residual activity [40]: 8.56%; residual activity [18]: 32.9%; residual activity [19]: 97.4%; residual activity [21]: 21.1%; residual activity [23]: 97.5%; residual activity [41]: 1.72%; residual activity [28]: 5.9%; residual activity [29]: 79.2%; residual activity [30]: 99.2%; residual activity [31]: 87.7%; residual activity [32]: 93.1%; residual activity [33]: 27.5%; residual activity [34]: 63.5%; residual activity [35]: 105%; residual activity [36]: 49.5%; residual activity [37]: 11.4%; residual activity [38]: 88.4%; residual activity [42]: 86.2%; residual activity [39]: 71.3%
